Experimental findings from US20040116386A1, “Resveratrol-phospholipids complexes, their preparation, and pharmaceutical and cosmetic composition containing same” (priority 2001, published 2004) are described below.

Data set [1] can be described thus: Permeability through rabbit colon, Ussing Chamber method. It is filed as in vitro ADME. An excerpt:
This device consists of: 6 cells divided into two parts by a septum, which accommodate the tissue obtained from the rabbit colon; an oxygenation system; a system for the circulation of a specific buffer solution maintained at constant temperature by heating; and finally electrodes for measuring the compound concentration variations, wherefrom the apparent permeability coefficient (Papp), expressed in cm/sec, is obtained.

Data set [2] is described as follows: Pharmacokinetic study, oral administration to rats. It is filed as in vivo. Conditions: rat, blood, equimolecular doses (Resveratrol 2 mg/Kg, complex 9.13 mg/Kg). The method, then:
The product concentration in blood was determined at prefixed time intervals.

A word on the Papp: it is the rate of passage across a membrane or cell layer, normalised by area and donor concentration. Take `Oc1ccc(/C=C/c2cc(O)cc(O)c2)cc1` [trans-Resveratrol]: the apparent permeability (Papp) in data set [1] was determined as 0.2 ×10⁻⁶ cm/s. In data set [2] (15 min), this molecule came in with a concentration at 15 min of 18 ng/mL. The molecule further showed a concentration at 30 min in data set [2] (30 min) of 34 ng/mL. Besides, in data set [2] (60 min), the concentration at 60 min was 43 ng/mL. Besides, the concentration at 120 min in data set [2] (120 min) came out at 11 ng/mL. This molecule displayed a concentration at 240 min in data set [2] (240 min) of 0 ng/mL.
